From patent US10363257B2 (ZENITH EPIGENETICS LTD., priority 2013, dated 2019)
pIC50: −log10 of the molar value.

What was measured:
c-myc = assay: Inhibition of c-myc expression (mRNA, real-time PCR) in MV4-11 cells; type: cell-based; settings: Human AML MV4-11 cells, 3 h, cMYC mRNA
Method in brief: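 MV4-11 cells treated 3 h at 37° C with increasing compound concentrations or 0.1% DMSO, in triplicate. cMYC mRNA quantified by one-step TaqMan real-time PCR, Ct normalized to internal control (Cyclophilin primers used), fold expression relative to control.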

hIL-17 mRNA = assay: Inhibition of hIL-17 mRNA transcription in OKT3-stimulated peripheral blood mononuclear cells; type: cell-based; settings: PBMC, human peripheral blood mononuclear cells, OKT3 antibody, 6 h, read-out: IL-17 activity
Description: In this example, hIL-17 mRNA in human peripheral blood mononuclear cells was quantitated to measure the transcriptional inhibition of hIL-17 when treated with a compound of the invention.
Human peripheral blood mononuclear cells were plated (2.0×10^5 cells per well) in a 96-well plate in 45 μL OpTimizer T Cell expansion media containing 20 ng/ml IL-2 and penicillin/streptomycin. The cells were treated with the test compound (45 μL at 2× concentration), and then the cells were incubated at 37° C. for 1 h before addition of 10× stock OKT3 antibody at 10 μg/ml in media. Cells were incubated at 37° C. for 6 h before the cells were harvested. At time of harvest, cells were centrifuged (800 rpm, 5 min). Spent media was removed and cell lysis solution (70 μL) was added to the cells in each well and incubated for 5-10 min at room temperature, to allow for complete cell lysis and detachment. mRNA was then prepared using the “mRNA Catcher PLUS plate” (Invitrogen), according to the protocol supplied. After the last wash, as much wash buffer as possible was aspirated without allowing the wells to dry. Elution buffer (E3, 70 μL) was then added to each well. mRNA was then eluted by incubating the mRNA Catcher PLUS plate with Elution Buffer for 5 min at 68° C. and then immediately placing the plate on ice.
The eluted mRNA isolated was then used in a one-step quantitative RT-PCR reaction, using components of the Ultra Sense Kit together with Applied Biosystems primer-probe mixes. Real-time PCR data was analyzed, normalizing the Ct values for hIL-17 to an internal control, prior to determining the fold induction of each unknown sample, relative to the control.

hIL-6 mRNA = assay: Inhibition of hIL-6 mRNA transcription in LPS-stimulated U937 cells; type: cell-based; settings: Homo sapiens, U-937; PMA-differentiated U937 cells, 1 h pretreatment, 1 ug/mL LPS stimulation, 3 h; read-out: IL-6 activity (Inhibition of hIL-6 mRNA Transcription)
Method in brief: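 U937 cells differentiated 3 days with 60 ng/mL PMA, pretreated 1 h with compound (0.1% DMSO), then stimulated with 1 ug/mL E. coli LPS for 3 h at 37 °C. hIL-6 mRNA measured by one-step TaqMan RT-qPCR, normalized to cyclophilin. Fold expression relative to control; triplicate wells.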

human AML MV-4-11 cells = assay: Inhibition of cell proliferation in MV4-11 cells (CellTiter Aqueous One); type: cell-based; settings: for pIC50: MV4-11, 72 h
Method in brief: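 Exponentially growing MV-4-11 cells (5×10^4/well) were treated immediately with two-fold dilutions of compound from 30 μM to 0.2 μM, in triplicate, for 72 h at 37° C, 5% CO2. Viability was measured by MTS absorbance at 490 nm after 3–4 h. Proliferation relative to DMSO after blank correction gave IC50.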

[1] = biological target: T1, Brd4 bromodomain 1 (BRD4(1)) (Homo sapiens, UniProt O60885); assay: Inhibition of tetra-acetylated histone H4 binding to Brd4 bromodomain 1 (TR-FRET); settings: tetra-acetylated histone H4 peptide, first bromodomain of Brd4
T1 construct: made in house; host or cells: E. coli BL21(DE3)
Method in brief: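 His-tagged BRD4(1) from E. coli (200 nM) with biotinylated tetra-acetylated H4 peptide (25-50 nM), Eu-cryptate streptavidin and XL665 anti-His, in HEPES pH 7.4/phosphate/KF buffer, 0.2% DMSO. After 2 h at room temperature, TR-FRET 665/620 nm ratio read; IC50 from dose-response curves.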

Row | Compound | pIC50 (c-myc) | pIC50 (hIL-17 mRNA) | pIC50 (hIL-6 mRNA) | pIC50 (human AML MV-4-11 cells) | pIC50 [1] | Cell Proliferation activity (human AML MV-4-11 cells; 72 h)
1 | Cc1noc(C)c1-c1cc(N)c2nc(C)n(Cc3ccccc3)c2c1 [Example Compound 55, 1-benzyl-6-(3,5-dimethylisoxazol-4-yl)-2-methyl-1H-benzo[d]imidazol-4-amine] | ≥ 6.52 | ≥ 6.52 | ≥ 6.52 | ≥ 6.52 | ≥ 6.52 | 
2 | Cc1noc(C)c1-c1cnc2[nH]c(=O)n(Cc3ccccc3)c2c1 [Example Compound 10, 1-Benzyl-6-(3,5-dimethylisoxazol-4-yl)-1H-imidazo[4,5-b]pyridin-2(3H)-one] | 5.52 to 6.52 | ≥ 6.52 | ≥ 6.52 | 5.52 to 6.52 | ≥ 6.52 | 
3 | Cc1noc(C)c1-c1cnc2[nH]c(=O)n(Cc3cccs3)c2c1 [compound 106, 6-(3,5-dimethylisoxazol-4-yl)-1-(thiophen-2-ylmethyl)-1H-imidazo[4,5-b]pyridin-2(3H)-one] | 5.52 to 6.52 | 5.52 to 6.52 | 5.52 to 6.52 | 5.52 to 6.52 | ≥ 6.52 | 
4 | Cc1noc(C)c1-c1cnc2c(C)nn(Cc3ccc(F)cc3)c2c1 [Example Compound 53, 4-(1-(4-fluorobenzyl)-3-methyl-1H-pyrazolo[4,3-b]pyridin-6-yl)-3,5-dimethylisoxazole] |  | 4.52 to 5.52 | 5.52 to 6.52 |  | ≥ 6.52 | Not active
5 | CCNc1nc2c(N)cc(-c3c(C)noc3C)cc2n1Cc1ccccc1 [Example Compound 19, 1-benzyl-6-(3,5-dimethylisoxazol-4-yl)-N^2-ethyl-1H-benzo[d]imidazole-2,4-diamine] | ≥ 6.52 | ≥ 6.52 | ≥ 6.52 | ≥ 6.52 | ≥ 6.52 | 
6 | Cc1noc(C)c1-c1cc(N)c2c(c1)ncn2Cc1ccccc1 [Example Compound 8, 1-Benzyl-5-(3,5-dimethylisoxazol-4-yl)-1H-benzo[d]imidazol-7-amine] | 5.52 to 6.52 | 5.52 to 6.52 | 5.52 to 6.52 | 5.52 to 6.52 | ≥ 6.52 | 
7 | Cc1noc(C)c1-c1cnc2ncn(Cc3ccc(F)cc3)c2c1 [Example Compound 45, 4-(1-(4-fluorobenzyl)-1H-imidazo[4,5-b]pyridin-6-yl)-3,5-dimethylisoxazole] | 5.52 to 6.52 | 5.52 to 6.52 | 5.52 to 6.52 | 5.52 to 6.52 | ≥ 6.52 | 
8 | Cc1noc(C)c1-c1cc(N)c2[nH]c(=O)n(Cc3ccccc3)c2c1 [Example Compound 16, 4-amino-1-benzyl-6-(3,5-dimethylisoxazol-4-yl)-1H-benzo[d]imidazol-2(3H)-one] | ≥ 6.52 | 5.52 to 6.52 | ≥ 6.52 | ≥ 6.52 | ≥ 6.52 | 
9 | Cc1noc(C)c1-c1cnc2ncn(C(C)c3ccccc3)c2c1 (centres unmarked) [Example Compound 30] | 5.52 to 6.52 | 5.52 to 6.52 | 5.52 to 6.52 | 5.52 to 6.52 | ≥ 6.52 | 
10 | CCNc1nc2c([N+](=O)[O-])cc(-c3c(C)noc3C)cc2n1Cc1ccccc1 [Example Compound 18, 1-benzyl-6-(3,5-dimethylisoxazol-4-yl)-N-ethyl-4-nitro-1H-benzo[d]imidazol-2-amine] | ≥ 6.52 | 5.52 to 6.52 | 5.52 to 6.52 | ≥ 6.52 | ≥ 6.52 | 
11 | Cc1noc(C)c1-c1cnc2nc(C)n(Cc3ccccc3)c2c1 [Example Compound 13, 4-(1-benzyl-2-methyl-1H-imidazo[4,5-b]pyridin-6-yl)-3,5-dimethylisoxazole] | 5.52 to 6.52 | 5.52 to 6.52 | ≥ 6.52 | 5.52 to 6.52 | ≥ 6.52 | 
12 | Cc1noc(C)c1-c1cnc2[nH]c(=O)n(C(C)c3ccccc3)c2c1 (centres unmarked) [compound 112, 6-(3,5-dimethylisoxazol-4-yl)-1-(1-phenylethyl)-1H-imidazo[4,5-b]pyridin-2(3H)-one] | ≥ 6.52 | ≥ 6.52 | 5.52 to 6.52 | 5.52 to 6.52 | ≥ 6.52 | 
13 | Cc1noc(C)c1-c1cnc2ncn(Cc3ccccc3)c2c1 [Example Compound 5, 4-(1-Benzyl-1H-imidazo[4,5-b]pyridin-6-yl)-3,5-dimethylisoxazole] | 5.52 to 6.52 | 5.52 to 6.52 | 5.52 to 6.52 | 5.52 to 6.52 | ≥ 6.52 | 
14 | Cc1noc(C)c1-c1cnc2nc(C)n(Cc3ccc(Cl)cc3Cl)c2c1 [Example Compound 61, 4-(1-(2,4-dichlorobenzyl)-2-methyl-1H-imidazo[4,5-b]pyridin-6-yl)-3,5-dimethylisoxazole] | 5.52 to 6.52 |  | 5.52 to 6.52 | 4.52 to 5.52 | ≥ 6.52 | 
15 | Cc1noc(C)c1-c1cc(N)c2nc(C)n(CC3CCCC3)c2c1 [compound 133, 1-(cyclopentylmethyl)-6-(3,5-dimethylisoxazol-4-yl)-2-methyl-1H-benzo[d]imidazol-4-amine] | ≥ 6.52 |  | ≥ 6.52 | 5.52 to 6.52 | ≥ 6.52 | 
16 | Cc1noc(C)c1-c1ccc2ncn(Cc3ccccc3)c2n1 [Example Compound 26, 4-(3-benzyl-3H-imidazo[4,5-b]pyridin-5-yl)-3,5-dimethylisoxazole] | 4.52 to 5.52 |  | 5.52 to 6.52 | 5.52 to 6.52 | 5.52 to 6.52 | 
17 | Cc1noc(C)c1-c1cnc2c(C=O)cn(Cc3ccccc3)c2c1 [Example Compound 35, 1-benzyl-6-(3,5-dimethylisoxazol-4-yl)-1H-pyrrolo[3,2-b]pyridine-3-carbaldehyde] | 5.52 to 6.52 |  | 5.52 to 6.52 | 5.52 to 6.52 | ≥ 6.52 | 
18 | Cc1noc(C)c1-c1cnc2c(CN(C)C)cn(Cc3ccccc3)c2c1 [compound 72, 1-(1-benzyl-6-(3,5-dimethylisoxazol-4-yl)-1H-pyrrolo[3,2-b]pyridin-3-yl)-N,N-dimethylmethanamine] | 4.52 to 5.52 |  | 4.52 to 5.52 | 4.52 to 5.52 | 5.52 to 6.52 | 
19 | Cc1noc(C)c1-c1cc(N)c2nc(C)n(CC3CCC3)c2c1 [compound 132, 1-(cyclobutylmethyl)-6-(3,5-dimethylisoxazol-4-yl)-2-methyl-1H-benzo[d]imidazol-4-amine] | 5.52 to 6.52 |  | ≥ 6.52 | 5.52 to 6.52 | ≥ 6.52 | 
20 | CC(=O)Nc1cn(Cc2ccccc2)c2cc(-c3c(C)noc3C)cnc12 [compound 99, N-(1-benzyl-6-(3,5-dimethylisoxazol-4-yl)-1H-pyrrolo[3,2-b]pyridin-3-yl)acetamide] | 5.52 to 6.52 |  | 5.52 to 6.52 | 5.52 to 6.52 | ≥ 6.52 | 
21 | Cc1noc(C)c1-c1cnc2c(Br)cn(Cc3ccccc3)c2c1 [Example Compound 34, 4-(1-benzyl-3-bromo-1H-pyrrolo[3,2-b]pyridin-6-yl)-3,5-dimethylisoxazole] | 5.52 to 6.52 |  | 5.52 to 6.52 | 5.52 to 6.52 | ≥ 6.52 | 
22 | Cc1noc(C)c1-c1cc([N+](=O)[O-])c2nc(C)n(CC3CCCC3)c2c1 [compound 117, 4-(1-(cyclopentylmethyl)-2-methyl-4-nitro-1H-benzo[d]imidazol-6-yl)-3,5-dimethylisoxazole] | ≥ 6.52 |  | ≥ 6.52 | ≥ 6.52 | ≥ 6.52 | 
23 | Cc1noc(C)c1-c1cnc2[nH]c(=O)n(CC3CC3)c2c1 [compound 118, 1-(cyclopropylmethyl)-6-(3,5-dimethylisoxazol-4-yl)-1H-imidazo[4,5-b]pyridin-2(3H)-one] | 5.52 to 6.52 |  | 5.52 to 6.52 | 5.52 to 6.52 | ≥ 6.52 | 
